{"source": "patent US20190231768A1", "about": "“P[…] TREATING DRUG INDUCED DYSKINESIAS” (PRILENIA THERAPEUTICS DEVELOPMENT LTD., priority 2017, published 2019)", "key": {"Serotonin 5-HT7": {"molecular_target": "Serotonin 5-HT7 (Homo sapiens, UniProt P34969)", "sequence (P34969 whole entry)": "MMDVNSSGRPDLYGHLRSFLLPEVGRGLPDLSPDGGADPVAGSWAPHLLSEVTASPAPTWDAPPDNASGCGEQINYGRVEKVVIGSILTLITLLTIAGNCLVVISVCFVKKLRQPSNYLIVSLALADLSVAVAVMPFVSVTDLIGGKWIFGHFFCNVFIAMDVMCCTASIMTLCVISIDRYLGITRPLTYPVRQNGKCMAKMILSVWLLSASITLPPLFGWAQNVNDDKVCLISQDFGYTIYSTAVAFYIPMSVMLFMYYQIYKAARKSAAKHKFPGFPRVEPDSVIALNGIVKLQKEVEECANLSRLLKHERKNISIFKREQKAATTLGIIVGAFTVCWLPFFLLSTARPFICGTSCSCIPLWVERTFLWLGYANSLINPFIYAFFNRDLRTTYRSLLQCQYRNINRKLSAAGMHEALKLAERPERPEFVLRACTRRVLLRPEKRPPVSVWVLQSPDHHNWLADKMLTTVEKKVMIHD", "description": "(§1) NMDA, 5-HT6 and tachykinin NK1 receptors along with the dopamine transporter (DAT), norepinephrine transporter (NET) and serotonin transporter (SERT). The specific ligand binding to the receptors was defined as the difference between the total binding and the nonspecific binding determined in the presence of an excess of unlabeled ligand. IC50 values were determined by a non-linear, least squares regression analysis using MathIQ™ (ID Business Solutions Ltd., UK). […] Hill coefficient (nH), defining the slope of the competitive binding curve, was calculated using MathIQ™."}, "Adrenergic α2A": {"molecular_target": "Adrenergic α2A (Homo sapiens, UniProt P08913)", "sequence (P08913 whole entry)": "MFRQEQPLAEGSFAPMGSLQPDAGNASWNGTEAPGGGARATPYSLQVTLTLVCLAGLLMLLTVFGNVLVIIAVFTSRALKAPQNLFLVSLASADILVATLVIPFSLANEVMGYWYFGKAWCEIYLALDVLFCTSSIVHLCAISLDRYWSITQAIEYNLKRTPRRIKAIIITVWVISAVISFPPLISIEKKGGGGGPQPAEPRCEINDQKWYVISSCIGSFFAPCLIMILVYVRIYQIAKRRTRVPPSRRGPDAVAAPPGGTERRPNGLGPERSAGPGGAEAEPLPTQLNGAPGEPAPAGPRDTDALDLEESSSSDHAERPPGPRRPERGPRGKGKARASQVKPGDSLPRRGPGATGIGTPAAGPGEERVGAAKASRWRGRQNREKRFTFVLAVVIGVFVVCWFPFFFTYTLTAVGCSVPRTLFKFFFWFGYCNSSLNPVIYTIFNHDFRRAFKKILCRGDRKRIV", "description": "as §1"}, "NMDAR": {"tested_on": "NMDAR", "description": "as §1"}, "Serotonin 5-HT2A": {"molecular_target": "Serotonin 5-HT2A (Homo sapiens, UniProt P28223)", "sequence (P28223 whole entry)": "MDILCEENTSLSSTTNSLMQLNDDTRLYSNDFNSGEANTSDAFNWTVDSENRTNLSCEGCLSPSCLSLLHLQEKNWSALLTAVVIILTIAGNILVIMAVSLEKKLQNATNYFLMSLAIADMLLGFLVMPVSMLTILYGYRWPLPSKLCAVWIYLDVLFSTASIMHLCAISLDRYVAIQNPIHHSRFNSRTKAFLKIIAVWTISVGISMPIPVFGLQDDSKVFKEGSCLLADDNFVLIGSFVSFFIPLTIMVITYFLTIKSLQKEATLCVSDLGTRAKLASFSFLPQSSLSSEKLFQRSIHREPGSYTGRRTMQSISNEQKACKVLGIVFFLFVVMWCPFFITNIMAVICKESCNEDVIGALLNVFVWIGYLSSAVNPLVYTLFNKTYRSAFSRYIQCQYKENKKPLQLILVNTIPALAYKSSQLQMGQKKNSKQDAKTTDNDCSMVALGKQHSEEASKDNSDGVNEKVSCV", "description": "as §1"}, "[1]": {"molecular_target": "Dopamine transporter (DAT) (Homo sapiens, UniProt Q01959)", "sequence (Q01959 whole entry, species assumed)": "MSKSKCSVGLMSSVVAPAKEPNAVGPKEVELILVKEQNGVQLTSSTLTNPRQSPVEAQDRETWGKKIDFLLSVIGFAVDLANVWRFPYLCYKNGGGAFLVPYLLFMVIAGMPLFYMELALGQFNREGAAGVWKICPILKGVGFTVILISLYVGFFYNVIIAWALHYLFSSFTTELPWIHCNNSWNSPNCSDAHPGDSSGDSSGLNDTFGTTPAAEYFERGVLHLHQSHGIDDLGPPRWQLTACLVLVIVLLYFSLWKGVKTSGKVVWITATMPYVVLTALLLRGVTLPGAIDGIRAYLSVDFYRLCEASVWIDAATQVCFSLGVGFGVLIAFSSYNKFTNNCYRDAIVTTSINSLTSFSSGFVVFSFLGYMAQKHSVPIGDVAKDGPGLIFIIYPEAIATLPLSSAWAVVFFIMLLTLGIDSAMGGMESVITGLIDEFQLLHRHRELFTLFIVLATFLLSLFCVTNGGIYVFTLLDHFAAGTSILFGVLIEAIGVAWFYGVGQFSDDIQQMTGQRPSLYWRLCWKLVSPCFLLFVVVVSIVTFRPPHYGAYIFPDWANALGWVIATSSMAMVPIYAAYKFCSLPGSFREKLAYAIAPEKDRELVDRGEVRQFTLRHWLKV", "description": "as §1"}, "5-HT6": {"molecular_target": "5-HT6 (Homo sapiens, UniProt P50406)", "sequence (P50406 whole entry, species assumed)": "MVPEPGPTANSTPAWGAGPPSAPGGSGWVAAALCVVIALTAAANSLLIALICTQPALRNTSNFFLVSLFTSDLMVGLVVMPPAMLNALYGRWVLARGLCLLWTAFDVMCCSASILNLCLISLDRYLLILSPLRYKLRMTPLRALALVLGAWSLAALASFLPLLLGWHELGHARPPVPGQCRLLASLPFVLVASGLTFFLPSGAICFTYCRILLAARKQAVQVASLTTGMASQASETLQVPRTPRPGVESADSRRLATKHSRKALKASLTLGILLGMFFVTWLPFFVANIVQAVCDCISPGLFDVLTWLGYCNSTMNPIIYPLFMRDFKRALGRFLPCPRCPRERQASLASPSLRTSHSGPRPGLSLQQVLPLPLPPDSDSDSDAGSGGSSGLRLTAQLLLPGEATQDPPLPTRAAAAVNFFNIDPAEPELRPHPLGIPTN", "description": "as §1"}, "Sigma-1 (σ1R)": {"molecular_target": "Sigma-1 (σ1R) (Homo sapiens, UniProt Q99720)", "sequence (Q99720 whole entry, species assumed)": "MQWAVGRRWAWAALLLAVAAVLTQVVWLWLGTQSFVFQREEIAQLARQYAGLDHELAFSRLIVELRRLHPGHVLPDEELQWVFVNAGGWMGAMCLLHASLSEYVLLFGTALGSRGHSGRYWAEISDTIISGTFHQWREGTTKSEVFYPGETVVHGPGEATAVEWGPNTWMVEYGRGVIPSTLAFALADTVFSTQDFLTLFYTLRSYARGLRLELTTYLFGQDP", "description": "as §1"}, "Muscarinic M2": {"molecular_target": "Muscarinic M2 (Homo sapiens, UniProt P08172)", "sequence (P08172 whole entry)": "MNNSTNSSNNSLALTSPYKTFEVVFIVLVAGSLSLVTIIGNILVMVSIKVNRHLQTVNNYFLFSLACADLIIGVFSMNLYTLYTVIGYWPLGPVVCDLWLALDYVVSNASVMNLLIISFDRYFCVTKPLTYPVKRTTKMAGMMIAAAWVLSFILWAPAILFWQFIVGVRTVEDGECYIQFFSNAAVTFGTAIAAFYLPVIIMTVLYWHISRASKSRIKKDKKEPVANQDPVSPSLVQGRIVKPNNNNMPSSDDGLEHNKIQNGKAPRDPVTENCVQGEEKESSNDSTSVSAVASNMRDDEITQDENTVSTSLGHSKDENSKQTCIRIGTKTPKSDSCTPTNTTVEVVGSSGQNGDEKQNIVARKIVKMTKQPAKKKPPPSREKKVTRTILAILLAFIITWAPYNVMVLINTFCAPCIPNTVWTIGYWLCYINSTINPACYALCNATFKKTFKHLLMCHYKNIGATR", "description": "as §1"}, "Dopamine D3": {"molecular_target": "Dopamine D3 (Homo sapiens, UniProt P35462)", "sequence (P35462 whole entry)": "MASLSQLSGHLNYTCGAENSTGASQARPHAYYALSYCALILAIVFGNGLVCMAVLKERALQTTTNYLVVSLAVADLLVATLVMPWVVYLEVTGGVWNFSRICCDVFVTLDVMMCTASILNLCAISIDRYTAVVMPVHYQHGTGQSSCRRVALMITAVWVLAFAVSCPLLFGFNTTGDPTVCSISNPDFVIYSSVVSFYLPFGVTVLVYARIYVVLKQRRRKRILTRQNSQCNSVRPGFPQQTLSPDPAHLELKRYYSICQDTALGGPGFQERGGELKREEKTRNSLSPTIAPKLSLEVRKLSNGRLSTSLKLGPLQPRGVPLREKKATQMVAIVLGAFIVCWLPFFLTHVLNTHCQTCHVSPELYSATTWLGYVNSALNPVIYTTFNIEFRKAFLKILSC", "description": "as §1"}, "adrenergic alpha-1": {"tested_on": "adrenergic alpha-1", "conditions": "in the micromolar range", "description": "as §1"}, "Tachykinin NK1": {"molecular_target": "Tachykinin NK1 (Homo sapiens, UniProt P25103)", "sequence (P25103 whole entry)": "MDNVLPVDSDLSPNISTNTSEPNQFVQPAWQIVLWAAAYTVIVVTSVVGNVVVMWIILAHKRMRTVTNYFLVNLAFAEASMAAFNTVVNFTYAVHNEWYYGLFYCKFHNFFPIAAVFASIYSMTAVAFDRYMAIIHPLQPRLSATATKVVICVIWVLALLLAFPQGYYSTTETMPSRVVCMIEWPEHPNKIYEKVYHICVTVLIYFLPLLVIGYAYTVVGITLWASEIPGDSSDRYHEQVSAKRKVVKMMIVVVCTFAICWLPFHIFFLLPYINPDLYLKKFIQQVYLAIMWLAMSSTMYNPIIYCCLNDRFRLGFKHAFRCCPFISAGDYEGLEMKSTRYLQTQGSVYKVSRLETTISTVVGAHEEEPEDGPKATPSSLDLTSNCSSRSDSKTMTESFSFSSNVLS", "description": "as §1"}, "σ1R": {"molecular_target": "σ1R (Rattus norvegicus, UniProt Q9R0C9)", "sequence (Q9R0C9 whole entry)": "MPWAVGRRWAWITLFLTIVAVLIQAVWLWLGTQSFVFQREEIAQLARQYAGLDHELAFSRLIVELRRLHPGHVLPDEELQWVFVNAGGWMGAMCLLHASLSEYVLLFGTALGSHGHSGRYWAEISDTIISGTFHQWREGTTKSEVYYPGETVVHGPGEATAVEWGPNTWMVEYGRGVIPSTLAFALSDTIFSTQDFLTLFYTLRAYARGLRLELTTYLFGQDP", "conditions": "3 mg/kg PO; cited from earlier work"}}}
{"smiles": "CCCN1CCC(c2cccc(S(C)(=O)=O)c2)CC1", "note": "[pridopidine, 4-(3-(methylsulfonyl)phenyl)-1-propylpiperidine]", "values": [{"measurement": "nH (Hill coefficient)", "setting": "Serotonin 5-HT7", "value": 1.02}, {"measurement": "nH (Hill coefficient)", "setting": "Adrenergic α2A", "value": 0.98}, {"measurement": "binding", "setting": "NMDAR", "value": "no observed binding"}, {"measurement": "nH (Hill coefficient)", "setting": "Serotonin 5-HT2A", "value": 0.81}, {"measurement": "binding", "setting": "[1]", "value": "no observed binding"}, {"measurement": "binding", "setting": "5-HT6", "value": "no observed binding"}, {"measurement": "nH (Hill coefficient)", "setting": "Sigma-1 (σ1R)", "value": 0.87}, {"measurement": "affinity for S1R compared to Dopamine D2R", "setting": "Sigma-1 (σ1R); S1R vs D2R", "value": "approximately 100 fold"}, {"measurement": "nH (Hill coefficient)", "setting": "Muscarinic M2", "value": 0.62}, {"measurement": "nH (Hill coefficient)", "setting": "Dopamine D3", "value": 0.90}, {"measurement": "binding", "setting": "adrenergic alpha-1", "value": "low-affinity binding"}, {"measurement": "binding", "setting": "Tachykinin NK1", "value": "no observed binding"}, {"measurement": "% σ1R occupancy", "setting": "σ1R", "value": 60, "unit": "%"}]}
